# Measurements reported in patent publication US7741281B2, “Hepatitis C virus inhibitors” (Bristol-Myers Squibb Company, priority 2005, dated 2010).
# pEC50, pIC50: −log10 of the molar value. Like-named read-outs stand apart in the source and are kept apart here.
# What was measured:
# [1] = system: HCV replicon in HUH-7 cells; test: HCV replicon FRET assay; assay type: cell-based, HCV strain 1b; conditions: Hepatitis C virus
# Source text: An HCV replicon whole cell system was established as described by Lohmann V, Korner F, Koch J, Herian U, Theilmann L, Bartenschlager R., Science 285(5424):110-3 (1999). This system enabled us to evaluate the effects of our HCV Protease compounds on HCV RNA replication. Briefly, using the HCV strain 1b sequence described in the Lohmann paper (Assession number: AJ238799), an HCV cDNA was synthesized by Operon Technologies, Inc. (Alameda, Calif.), and the full-length replicon was then assembled in plasmid pGem9zf(+) (Promega, Madison, Wis.) using standard molecular biology techniques. The replicon consists of (i) the HCV 5′ UTR fused to the first 12 amino acids of the capsid protein, (ii) the neomycin phosphotransferase gene (neo), (iii) the IRES from encephalomyocarditis virus (EMCV), and (iv) HCV NS3 to NS5B genes and the HCV 3′ UTR. Plasmid DNAs were linearized with ScaI and RNA transcripts were synthesized in vitro using the T7 MegaScript transcription kit (Ambion, Austin, Tex.) according to manufacturer's directions. In vitro transcripts of the cDNA were transfected into the human hepatoma cell line, HUH-7. […] Resulting cell lines were characterized for positive and negative strand RNA production and protein production over time.
# The HCV replicon FRET assay was developed to monitor the inhibitory effects of compounds described in the disclosure on HCV viral replication. HUH-7 cells, constitutively expressing the HCV replicon, were grown in Dulbecco's Modified Eagle Media (DMEM) (Gibco-BRL) containing 10% Fetal calf serum (FCS) (Sigma) and 1 mg/ml G418 (Gibco-BRL). Cells were seeded the night before (1.5×10^4 cells/well) in 96-well tissue-culture sterile plates. Compound and no compound controls were prepared in DMEM containing 4% FCS, 1:100 Penicillin/Streptomysin (Gibco-BRL), 1:100 L-glutamine and 5% DMSO in the dilution plate (0.5% DMSO final concentration in the assay). Compound/DMSO mixes were added to the cells and incubated for 4 days at 37° C. After 4 days, cells were first assessed for cytotoxicity using alamar Blue (Trek Diagnotstic Systems) for a CC50 reading. The toxicity of compound (CC50) was determined by adding 1/10th volume of alamar Blue to the media incubating the cells. After 4 hours, the fluorescence signal from each well was read, with an excitation wavelength at 530 nm and an emission wavelength of 580 nm, using the Cytofluor Series 4000 (Perspective Biosystems). Plates were then rinsed thoroughly with Phosphate-Buffered Saline (PBS) (3 times 150 μl). The cells were lysed with 25 μl of a lysis assay reagent containing an HCV protease substrate (5× cell Luciferase cell culture lysis reagent (Promega #El 53A) diluted to 1× with distilled water, NaCl added to 150 mM final, the FRET peptide substrate (as described for the enzyme assay above) diluted to 10 μM final from a 2 mM stock in 100% DMSO. […]. The plate was then placed into the Cytofluor 4000 instrument which had been set to 340 nm excitation/490 nm emission, automatic mode for 21 cycles and the plate read in a kinetic mode. EC50 determinations were carried out as described for the IC50 determinations.
# [2] = system: human pancreatic chymotrypsin; test: Specificity assay, chymotrypsin (pNA substrate); assay type: biochemical; conditions: read-out: Chymotrypsin activity in the specificity assays (IC50)
# Method: The specificities of compounds of the present disclosure were determined against a variety of serine proteases: human neutrophil elastase (HNE), porcine pancreatic elastase (PPE) and human pancreatic chymotrypsin and one cysteine protease: human liver cathepsin B. In all cases, a 96-well plate format protocol using colorimetric p-nitroaniline (pNA) substrate or fluorometric Amino-Methyl-Coumarin (AMC) substrate, specific for each enzyme was used as described previously (PCT Patent Application No. WO 00/09543) with some modifications. All enzymes were purchased from Sigma or EMDbiosciences while the substrates were from Bachem.
# Each pNA assay included a 2 h enzyme-inhibitor pre-incubation at room temperature followed by addition of substrate and hydrolysis to ˜15% conversion as measured on a Spectramax Pro microplate reader. The cathepsin B assay was initiated by adding substrate to a 10 min enzyme-inhibitor pre-incubation at room temperature, and the assay plate measured immediately using the Cytofluor Series 4000. Compound concentrations varied from 100 to 0.4 μM depending on their potency.
# The final conditions for each assay were as follows: […]
# The percentage of inhibition was calculated using the formula: [1−((UVinh−UVblank)/(UVctl−UVblank))]×100 […]
smiles,measurement,setting,value
COc1c(O[C@@H]2C[C@H]3C(=O)N[C@]4(C(=O)NS(=O)(=O)C5CC5)C[C@H]4/C=C\CCCCC[C@H](NC(=O)OC(C)(C)C)C(=O)N3C2)ccc2c(Cl)nccc12 [Compound 3],pEC50,"[1]; 96 h, HUH-7 replicon cells, 4 days, read-out: EC50 value in the replicon FRET assay",7.84
same,pEC50,"[1]; Huh-7, HCV replicon, read-out: EC50 Activity Range",> 7.00
same,pIC50,[2],< 4.00
